Read-outs that look alike come from different tables or passages of the source.
What was measured:
HepG2 cells = test: In vitro cytotoxicity, MTT cell viability assay in HepG2 cells; format: cell-based; settings: human, 7 days
Outline: (§1)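 CC50 values reflect loss of HepG2 viability after a 7-day exposure at 37 °C, 5% CO2. After 3-4 h with MTT, solubilized formazan was quantified at 492 nm relative to vehicle wells.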

[1] = test system: HBV replication in HepAD38 cells; test: Anti-HBV activity in HepAD38 cells, extracellular HBV DNA by QPCR; format: cell-based, HBV (genotype D, serotype ayw)
Outline: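 Seven-day compound exposure (30 μM down to 10 nM, half-log steps) after tetracycline withdrawal induced HBV replication in HepAD38 cells. Extracellular viral DNA measured by QPCR (copies/mL via standard curve), normalised to DMSO wells; EC50 from 4-parameter non-linear regression.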

[2] = In vitro cytotoxicity, MTT cell viability assay in HepG2 cells; format: cell-based; settings: human, Cytotoxicity CC50
Outline: as §1

HBV = settings: Phase 1b clinical trial, 600 mg bid dosing for 29 days; cited from earlier work
[3] = Hepatitis B virus, HePAD38, 168 h, read-out: Anti-HBV EC50, HepAD38 cells, extracellular HBV DNA by QPCR, 7 days of incubation
[4] = read-out: Anti-HBV EC50, HepAD38 cells, extracellular HBV DNA by QPCR, 7 days of incubation

Q: With `Cc1cc(NC(=O)c2ccc(F)c(C(F)(F)C(=O)N3C4CCC3CC(O)(CO)C4)c2)ccc1F` (single isomer, unassigned; isomer 1) [Example 274] as the compound, how does the CC50 (HepG2 cells) read?
A: The CC50 was under 5 µM.

Q: What about the EC50 [1, 3] of the same compound?
A: The EC50 was under 5 µM.

Q: For `Cc1cc(NC(=O)c2ccc(F)c(C(F)(F)C(=O)N3C4CCC3CC(O)(CO)C4)c2)ccc1F` (single isomer, unassigned; isomer 2) [Example 275], which CC50 (HepG2 cells) is on record?
A: The CC50 was over 30 µM.

Q: And the EC50 [1, 4]?
A: Its EC50 is under 5 µM.

Q: What does the source list for `O=C(Nc1ccc(F)c(F)c1)c1ccc(F)c(C(F)(F)C(=O)NC2CCC(O)CC2)c1` (stereo not shown) [Example 27, 3-(1,1-difluoro-2-(((1s,4s)-4-hydroxycyclohexyl)amino)-2-oxoethyl)-N-(3,4-difluorophenyl)-4-fluorobenzamide]?
A: CC50 (HepG2 cells): 5 to 30 µM; EC50 [1, 4]: < 5 µM

Q: Which results are given for `Cc1cc(NC(=O)c2c(C)c(C(O)(C(=O)NC(C)(C)C)C(F)(F)F)c(C)n2C)ccc1F` (stereo not shown) [Example 155, 4-(3-(tert-butylamino)-1,1,1-trifluoro-2-hydroxy-3-oxopropan-2-yl)-N-(4-fluoro-3-methylphenyl)-1,3,5-trimethyl-1H-pyrrole-2-carboxamide]?
A: CC50 (HepG2 cells): 5 to 30 µM; EC50 [1, 4]: < 5 µM

Q: With `N#Cc1cc(NC(=O)c2ccc(F)c(C(F)(F)C(=O)N3[C@@H]4CC[C@H]3C[C@@H](O)C4)c2)ccc1F` [Example 178, N-(3-cyano-4-fluorophenyl)-3-(1,1-difluoro-2-((1R,3r,5S)-3-hydroxy-8-azabicyclo[3.2.1]octan-8-yl)-2-oxoethyl)-4-fluorobenzamide] as the compound, how does the CC50 (HepG2 cells) read?
A: The CC50 was over 30 µM.

Q: And the EC50 [1, 3]?
A: Its EC50 is under 5 µM.

Q: With `N#Cc1cc(NC(=O)c2ccc(F)c(C(F)(F)C(=O)N3CCC(O)C(F)(F)C3)c2)ccc1F` (stereo not shown) [Example 191, N-(3-cyano-4-fluorophenyl)-3-(2-(3,3-difluoro-4-hydroxypiperidin-1-yl)-1,1-difluoro-2-oxoethyl)-4-fluorobenzamide] as the compound, how does the CC50 (HepG2 cells) read?
A: The CC50 was 5 to 30 µM.

Q: And the EC50 [1, 4]?
A: Its EC50 is under 5 µM.

Q: What does the source list for `N#Cc1cc(NC(=O)c2ccc(F)c(C(F)(F)C(=O)N3[C@@H]4CC[C@H]3C[C@@H](O)C4)c2)ccc1F` [Example 192, N-(3-cyano-4-fluorophenyl)-3-(1,1-difluoro-2-((1R,3r,5S)-3-hydroxy-8-azabicyclo[3.2.1]octan-8-yl)-2-oxoethyl)-4-fluorobenzamide]?
A: CC50 (HepG2 cells): 5 to 30 µM; EC50 [1, 4]: < 5 µM

Q: Which CC50 at 7 days [2] does the source give for `Cc1cc(NC(=O)c2ccc(F)c(C(F)(F)C(=O)N3CCc4sc(N)nc4C3)c2)ccc1F` [Example 308, 3-(2-(2-amino-6,7-dihydrothiazolo[4,5-c]pyridin-5(4H)-yl)-1,1-difluoro-2-oxoethyl)-4-fluoro-N-(4-fluoro-3-methylphenyl)benzamide] here?
A: Its CC50 at 7 days is 5 to 30 µM.

Q: What about the EC50 [1, 3] of the same compound?
A: The EC50 was under 5 µM.

Q: With `Cc1cc(NC(=O)c2ccc(F)c(C(F)(F)C(=O)Nc3nc4c(s3)CCNC4)c2)ccc1F` [Example 309, 3-(1,1-difluoro-2-oxo-2-((4,5,6,7-tetrahydrothiazolo[4,5-c]pyridin-2-yl)amino)ethyl)-4-fluoro-N-(4-fluoro-3-methylphenyl)benzamide] as the compound, how does the CC50 at 7 days [2] read?
A: The CC50 at 7 days was 5 to 30 µM.

Q: And the EC50 [1, 3]?
A: The EC50 was 5 to 30 µM.

Q: Which results are given for `Cc1cc(NC(=O)c2ccc(F)c(C(F)(F)C(=O)N3CC4COCC(C3)C4O)c2)ccc1F` (stereo not shown) [Example 310, 3-(1,1-difluoro-2-(9-hydroxy-3-oxa-7-azabicyclo[3.3.1]nonan-7-yl)-2-oxoethyl)-4-fluoro-N-(4-fluoro-3-methylphenyl)benzamide]?
A: CC50 at 7 days [2]: > 30 µM; EC50 [1, 3]: < 5 µM

Q: For `CC(=O)NC1CCN(C(=O)C(F)(F)c2cc(C(=O)Nc3ccc(F)c(C)c3)ccc2N)CC1(C)C` (stereo not shown) [Example 311, 3-(2-(4-acetamido-3,3-dimethylpiperidin-1-yl)-1,1-difluoro-2-oxoethyl)-4-amino-N-(4-fluoro-3-methylphenyl)benzamide], which CC50 at 7 days [2] is on record?
A: Its CC50 at 7 days is over 30 µM.

Q: And the EC50 [1, 3]?
A: The EC50 was under 5 µM.

Q: For `CC(=O)N[C@H]1CCN(C(=O)C(F)(F)c2cc(C(=O)Nc3ccc(F)c(C)c3)ccc2F)CC1(C)C` [Example 327, (S)-3-(2-(4-acetamido-3,3-dimethylpiperidin-1-yl)-1,1-difluoro-2-oxoethyl)-4-fluoro-N-(4-fluoro-3-methylphenyl)benzamide], which CC50 at 7 days [2] is on record?
A: Its CC50 at 7 days is over 30 µM.

Q: And the EC50 [1, 3]?
A: Its EC50 is under 5 µM.

Q: Which CC50 at 7 days [2] does the source give for `Cc1cc(NC(=O)c2ccc(F)c(C(F)(F)C(=O)N3CCC(N)C(F)(F)C3)c2)ccc1F` (stereo not shown) [Example 334, 3-(2-(4-amino-3,3-difluoropiperidin-1-yl)-1,1-difluoro-2-oxoethyl)-4-fluoro-N-(4-fluoro-3-methylphenyl)benzamide] here?
A: The CC50 at 7 days was 5 to 30 µM.

Q: What about the EC50 [1, 3] of the same compound?
A: Its EC50 is under 5 µM.

Q: With `Cc1cc(NC(=O)c2ccc(F)c(C(F)(F)C(=O)N3CCC(NS(C)(=O)=O)C(F)(F)C3)c2)ccc1F` (stereo not shown) [Example 335, 3-(2-(3,3-difluoro-4-(methylsulfonamido)piperidin-1-yl)-1,1-difluoro-2-oxoethyl)-4-fluoro-N-(4-fluoro-3-methylphenyl)benzamide] as the compound, how does the CC50 at 7 days [2] read?
A: Its CC50 at 7 days is over 30 µM.

Q: What about the EC50 [1, 3] of the same compound?
A: The EC50 was under 5 µM.

Q: Which CC50 at 7 days [2] does the source give for `Cc1cc(NC(=O)c2ccc(F)c(C(F)(F)C(=O)N3[C@@H]4CCC[C@H]3C[C@@H](NS(C)(=O)=O)C4)c2)ccc1F` [Example 336, 3-(1,1-difluoro-2-((1R,3r,5S)-3-(methylsulfonamido)-9-azabicyclo[3.3.1]nonan-9-yl)-2-oxoethyl)-4-fluoro-N-(4-fluoro-3-methylphenyl)benzamide] here?
A: The CC50 at 7 days was over 30 µM.

Q: What about the EC50 [1, 3] of the same compound?
A: Its EC50 is under 5 µM.

Q: What does the source list for `Cc1cc(NC(=O)c2ccc(F)c(C(F)(F)C(=O)N3[C@@H]4CCC[C@H]3C[C@H](N)C4)c2)ccc1F` [Example 337, 3-(2-((1R,3s,5S)-3-amino-9-azabicyclo[3.3.1]nonan-9-yl)-1,1-difluoro-2-oxoethyl)-4-fluoro-N-(4-fluoro-3-methylphenyl)benzamide]?
A: CC50 at 7 days [2]: 5 to 30 µM; EC50 [1, 3]: < 5 µM

Q: For `Cc1cc(NC(=O)c2ccc(F)c(C(F)(F)C(=O)N3[C@@H]4CCC[C@H]3C[C@H](NS(C)(=O)=O)C4)c2)ccc1F` [Example 338, 3-(1,1-difluoro-2-((1R,3s,5S)-3-(methylsulfonamido)-9-azabicyclo[3.3.1]nonan-9-yl)-2-oxoethyl)-4-fluoro-N-(4-fluoro-3-methylphenyl)benzamide], which CC50 at 7 days [2] is on record?
A: Its CC50 at 7 days is 5 to 30 µM.

Q: And the EC50 [1, 3]?
A: The EC50 was under 5 µM.

Q: Which results are given for `Cc1cc(NC(=O)c2ccc(F)c(C(F)(F)C(=O)N3Cc4sc(N)nc4C(C)(C)C3)c2)ccc1F` [Example 339, 3-(2-(2-amino-7,7-dimethyl-6,7-dihydrothiazolo[5,4-c]pyridin-5(4H)-yl)-1,1-difluoro-2-oxoethyl)-4-fluoro-N-(4-fluoro-3-methylphenyl)benzamide]?
A: CC50 at 7 days [2]: 5 to 30 µM; EC50 [1, 3]: < 5 µM

Q: Which CC50 at 7 days [2] does the source give for `Cc1cc(NC(=O)c2ccc(F)c(C(F)(F)C(=O)N3CCc4nc(N)sc4CC3)c2)ccc1F` [Example 340, 3-(2-(2-amino-4,5,7,8-tetrahydro-6H-thiazolo[4,5-d]azepin-6-yl)-1,1-difluoro-2-oxoethyl)-4-fluoro-N-(4-fluoro-3-methylphenyl)benzamide] here?
A: Its CC50 at 7 days is 5 to 30 µM.

Q: What about the EC50 [1, 3] of the same compound?
A: Its EC50 is under 5 µM.

Q: With `Cc1cc(NC(=O)c2ccc(F)c(C(F)(F)C(=O)N3CCn4c(nnc4C(F)(F)F)C3)c2)ccc1F` [Example 341, 3-(1,1-difluoro-2-oxo-2-(3-(trifluoromethyl)-5,6-dihydro-[1,2,4]triazolo[4,3-a]pyrazin-7(8H)-yl)ethyl)-4-fluoro-N-(4-fluoro-3-methylphenyl)benzamide] as the compound, how does the CC50 at 7 days [2] read?
A: The CC50 at 7 days was 5 to 30 µM.

Q: And the EC50 [1, 3]?
A: The EC50 was 5 to 30 µM.

Q: Which CC50 at 7 days [2] does the source give for `Cc1cc(NC(=O)c2ccc(F)c(C(F)(F)C(=O)N3C4CCCC3c3sc(N)nc3C4)c2)ccc1F` (stereo not shown) [Example 342, 3-(2-(2-amino-4,5,6,7,8,9-hexahydro-5,9-epiminocycloocta[d]thiazol-10-yl)-1,1-difluoro-2-oxoethyl)-4-fluoro-N-(4-fluoro-3-methylphenyl)benzamide] here?
A: The CC50 at 7 days was over 30 µM.

Q: And the EC50 [1, 3]?
A: Its EC50 is under 5 µM.

Q: For `O=C(Nc1cc(F)c(F)c(F)c1)c1ccc(F)c(S(=O)(=O)N2CCC(O)CC2)c1` [NVR 3-778], which “reduction in HBV DNA” value (HBV) is on record?
A: Its value is −1.7 log 10.

Reference: patent publication US11247965B2 (VenatoRx Pharmaceuticals, Inc., priority 2017, dated 2022)
